Assay results published in patent US9980943B2, “Methods of treating muscular dystrophy” (BOARD OF REGENTS OF THE NEVADA SYSTEM OF HIGHER EDUCATION, …, priority 2013, dated 2018).

Assays:
Assay type in all cases: cell-based, mouse
[1] = system: α7 integrin (LacZ reporter in α7βgal+/− myoblasts); test: Myoblast α7+/LacZ integrin FDG assay (Burkin assay in myoblasts, 96-well); settings: α7+/LacZ myoblasts, 96-well
[2] = system: α7 integrin (LacZ reporter in α7+/LacZ myotubes); test: Myotube α7 integrin FDG assay (Burkin assay in myotubes, 96-well); settings: myotubes
[3] = system: β-galactosidase in CMV-LacZ C2C12 myoblasts; test: CMV-LacZ secondary screen in C2C12 myoblasts (β-Gal stabilizing assay); settings: CMV-LacZ C2C12 myoblasts
Procedure, shortened: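 Stable CMV-LacZ C2C12 clone; six-point curve 0.5–40 μM; duplicates.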

[4] = system: β-galactosidase in CMV-LacZ C2C12 myotubes; test: CMV-LacZ secondary screen in C2C12 myotubes (β-Gal stabilizing assay); settings: C2C12 CMV-LacZ myotubes, fold relative to DMSO
Procedure, shortened: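 Dose-response runs at 0.5–40 μM (0.5, 1, 5, 10, 20, 40 μM; N=2 per point) used a clonal C2C12 line carrying CMV-LacZ. Cells were assayed as myoblasts or as differentiated myotubes, and β-galactosidase levels were read with the FDG fluorogenic substrate.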

Row | SMILES | Burkin Assay in Myoblasts, signal relative to DMSO ([1]; 0.5 uM) | Burkin Assay in Myoblasts, signal relative to DMSO ([1]; 1 uM) | Burkin Assay in Myoblasts, signal relative to DMSO ([1]; 5 uM) | Burkin Assay in Myoblasts, signal relative to DMSO ([1]; 10 uM) | Burkin Assay in Myoblasts, signal relative to DMSO ([1]; 20 uM) | Burkin Assay in Myoblasts, signal relative to DMSO ([1]; 40 uM) | Burkin Assay in Myotubes, α7 integrin LacZ reporter signal relative to DMSO ([2]; 0.5 uM) | Burkin Assay in Myotubes, α7 integrin LacZ reporter signal relative to DMSO ([2]; 1 uM) | Burkin Assay in Myotubes, α7 integrin LacZ reporter signal relative to DMSO ([2]; 5 uM) | Burkin Assay in Myotubes, α7 integrin LacZ reporter signal relative to DMSO ([2]; 10 uM) | Burkin Assay in Myotubes, α7 integrin LacZ reporter signal relative to DMSO ([2]; 20 uM) | Burkin Assay in Myotubes, α7 integrin LacZ reporter signal relative to DMSO ([2]; 40 uM) | CMV-LACZ in Myoblasts (β-galactosidase activity relative to DMSO) ([3]; 0.5 uM) | CMV-LACZ in Myoblasts (β-galactosidase activity relative to DMSO) ([3]; 1 uM) | CMV-LACZ in Myoblasts (β-galactosidase activity relative to DMSO) ([3]; 5 uM) | CMV-LACZ in Myoblasts (β-galactosidase activity relative to DMSO) ([3]; 10 uM) | CMV-LACZ in Myoblasts (β-galactosidase activity relative to DMSO) ([3]; 20 uM) | CMV-LACZ in Myoblasts (β-galactosidase activity relative to DMSO) ([3]; 40 uM) | CMV-LACZ in Myotubes, signal relative to DMSO ([4]; 0.5 uM) | CMV-LACZ in Myotubes, signal relative to DMSO ([4]; 1 uM) | further results
1 | CCCCN1CC(=O)N2Cc3[nH]c4ccccc4c3C[C@H]2C1=O [MLS001165424-01] | 1.152 | 1.2222 | 0.9966 | 0.9548 | 1.176 | 1.23 | 0.8771 | 0.8568 | 0.8938 | 0.8315 | 0.7791 | 0.7641 | 1.1754 | 0.9796 | 1.0607 | 1.0078 | 1.2730 | 1.2074 | 0.9152 | 1.1248 | CMV-LACZ in Myotubes, signal relative to DMSO ([4]; 5 uM): 1.0571; CMV-LACZ in Myotubes, signal relative to DMSO ([4]; 10 uM): 1.1758; CMV-LACZ in Myotubes, signal relative to DMSO ([4]; 20 uM): 1.0316; CMV-LACZ in Myotubes, signal relative to DMSO ([4]; 40 uM): 0.8558
2 | Cl.O=C1C2CCCN2C(=O)N1CCCN1CCN(c2cccc(Br)c2)CC1 (stereo not drawn) [MLS001180929-01] | 1.077 | 1.0555 | 1.05 | 1.05 | 1.102 | 1.1941 | 0.899 | 0.9256 | 0.9643 | 1.03 | 0.8659 | 1.135 | 0.8571 | 0.9288 | 0.8251 | 0.8753 | 0.9811 | 0.6163 | 0.8848 | 0.7876 | CMV-LACZ in Myotubes, signal relative to DMSO ([4]; 5 uM): 1.0533; CMV-LACZ in Myotubes, signal relative to DMSO ([4]; 10 uM): 1.0084; CMV-LACZ in Myotubes, signal relative to DMSO ([4]; 20 uM): 1.1347; CMV-LACZ in Myotubes, signal relative to DMSO ([4]; 40 uM): 1.0274
3 | O=C(O)c1csc(-c2cccs2)n1 [MLS000760876-01] | 1.0287 | 0.9856 | 1.812 | 0.9113 | 1.102 | 0.9504 | 1.2427 | 1.256 | 1.249 | 0.9755 | 0.8634 | 0.8993 | 0.9069 | 1.0546 | 0.8293 | 0.8973 | 0.9396 | 0.8504 | 1.0248 | 1.1010 | CMV-LACZ in Myotubes, signal relative to DMSO ([4]; 5 uM): 1.1074; CMV-LACZ in Myotubes, signal relative to DMSO ([4]; 10 uM): 0.9789; CMV-LACZ in Myotubes, signal relative to DMSO ([4]; 20 uM): 0.9482; CMV-LACZ in Myotubes, signal relative to DMSO ([4]; 40 uM): 1.2565
4 | Cc1[nH]c2ccc(F)cc2c1CCN(Cc1ccco1)C(=S)NC(C)(C)C [MLS000419286-01] | 1.166 | 1.002 | 0.9174 | 0.8951 | 0.7945 | 0.7199 | 0.9511 | 0.8124 | 0.879 | 0.948 | 0.457 | 0.193 | 0.9960 | 0.7960 | 0.9701 | 0.8022 | 0.9368 | 0.6295 | 0.9990 | 1.1867 | CMV-LACZ in Myotubes, signal relative to DMSO ([4]; 5 uM): 1.0268; CMV-LACZ in Myotubes, signal relative to DMSO ([4]; 10 uM): 1.1581; CMV-LACZ in Myotubes, signal relative to DMSO ([4]; 20 uM): 0.8530; CMV-LACZ in Myotubes, signal relative to DMSO ([4]; 40 uM): 0.7830
